Measured values taken from ChEMBL document CHEMBL5465560, “Selectivity Literature for EUbOPEN Chemogenomic Library” (2024).

Legend:
[1] = target: Death-associated protein kinase 3 (Homo sapiens) (UniProt O43293); conditions: at 10 µM
[2] = target: T1, Tyrosine-protein kinase ZAP-70 (Homo sapiens) (UniProt P43403); test: Selectivity interaction (Ambit KINOMEscan and KiNATiv profiling in Jurkat cells) EUB0000090b ZAP70; format: cell-based; conditions: at 1 µM
T1 sequence (whole entry): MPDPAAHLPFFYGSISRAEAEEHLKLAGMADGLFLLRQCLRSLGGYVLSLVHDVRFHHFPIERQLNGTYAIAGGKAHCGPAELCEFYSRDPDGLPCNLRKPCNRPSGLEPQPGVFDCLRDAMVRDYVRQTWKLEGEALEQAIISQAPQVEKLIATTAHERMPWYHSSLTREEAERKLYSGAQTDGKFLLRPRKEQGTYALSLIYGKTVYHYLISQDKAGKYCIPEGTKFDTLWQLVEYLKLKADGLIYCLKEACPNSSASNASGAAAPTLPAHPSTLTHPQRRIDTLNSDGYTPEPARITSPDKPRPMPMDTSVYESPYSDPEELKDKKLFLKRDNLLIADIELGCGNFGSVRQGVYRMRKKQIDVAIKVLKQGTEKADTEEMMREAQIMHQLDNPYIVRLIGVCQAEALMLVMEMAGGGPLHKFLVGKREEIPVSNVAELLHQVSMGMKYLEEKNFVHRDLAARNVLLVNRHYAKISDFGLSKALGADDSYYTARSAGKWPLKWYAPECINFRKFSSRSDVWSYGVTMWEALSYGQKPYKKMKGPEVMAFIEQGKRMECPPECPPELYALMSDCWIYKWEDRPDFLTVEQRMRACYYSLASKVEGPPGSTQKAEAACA

[3] = target: Mitogen-activated protein kinase 8 (Homo sapiens, UniProt P45983); test: Selectivity interaction (Millipore kinase profiler) EUB0000124b MAPK8; conditions: at 10 µM
[4] = target: MAP kinase-activated protein kinase 2 (Homo sapiens, UniProt P49137); test: Selectivity interaction (KinomeScan (DiscoverX)) EUB0000607a MAPKAPK2; conditions: at 10 µM
[5] = target: Hepatocyte growth factor receptor (Homo sapiens, UniProt P08581); test: (§1) Selectivity interaction (KinomeScan (DiscoverX)) EUB0000607a MET; conditions: at 10 µM
[6] = tested on: Hepatocyte growth factor receptor (Homo sapiens), P08581 [Y1235D]; test: as §1; conditions: at 10 µM
[7] = tested on: Hepatocyte growth factor receptor (Homo sapiens), P08581 [M1250T]; test: as §1; conditions: at 10 µM
[8] = target: Transient receptor potential cation channel subfamily M member 6 (Homo sapiens) (UniProt Q9BX84); test: Selectivity interaction (KinomeScan (DiscoverX)) EUB0000045b TRPM6
[9] = target: T2, Inhibitor of nuclear factor kappa-B kinase subunit epsilon (Homo sapiens) (UniProt Q14164); test: Selectivity interaction (Kinase panel (KiNativ target engagement assay in Jurkat cells)) EUB0001635a IKBKE; format: cell-based; conditions: at 1 µM
T2 sequence (whole entry): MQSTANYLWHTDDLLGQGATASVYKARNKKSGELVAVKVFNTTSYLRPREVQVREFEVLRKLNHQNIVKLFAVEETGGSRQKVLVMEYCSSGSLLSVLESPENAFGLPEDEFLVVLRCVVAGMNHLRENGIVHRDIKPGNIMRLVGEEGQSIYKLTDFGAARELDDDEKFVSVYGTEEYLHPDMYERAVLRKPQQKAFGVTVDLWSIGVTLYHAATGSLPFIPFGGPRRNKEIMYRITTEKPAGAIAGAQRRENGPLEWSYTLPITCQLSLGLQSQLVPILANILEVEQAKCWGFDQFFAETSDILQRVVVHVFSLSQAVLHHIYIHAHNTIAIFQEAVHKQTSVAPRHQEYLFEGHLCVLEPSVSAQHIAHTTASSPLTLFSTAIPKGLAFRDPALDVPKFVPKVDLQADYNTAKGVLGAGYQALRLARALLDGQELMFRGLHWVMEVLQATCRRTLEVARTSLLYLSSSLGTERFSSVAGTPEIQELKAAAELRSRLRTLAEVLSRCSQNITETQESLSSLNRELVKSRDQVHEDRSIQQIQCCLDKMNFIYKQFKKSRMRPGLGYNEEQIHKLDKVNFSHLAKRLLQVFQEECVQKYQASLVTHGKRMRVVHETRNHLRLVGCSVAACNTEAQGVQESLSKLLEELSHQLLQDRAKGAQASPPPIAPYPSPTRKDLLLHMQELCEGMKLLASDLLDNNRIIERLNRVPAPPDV

[10] = Selectivity interaction (ActivX KiNativ screen (kinase selectivity in THP-1 cell lysates)) EUB0000639a STLK6; conditions: Selectivity number of targets 283, Source Knowledge https://pubmed.ncbi.nlm.nih.gov/28498658/
[11] = target: T3, Inhibitor of nuclear factor kappa-B kinase subunit alpha (Homo sapiens) (UniProt O15111)
T3 sequence (whole entry): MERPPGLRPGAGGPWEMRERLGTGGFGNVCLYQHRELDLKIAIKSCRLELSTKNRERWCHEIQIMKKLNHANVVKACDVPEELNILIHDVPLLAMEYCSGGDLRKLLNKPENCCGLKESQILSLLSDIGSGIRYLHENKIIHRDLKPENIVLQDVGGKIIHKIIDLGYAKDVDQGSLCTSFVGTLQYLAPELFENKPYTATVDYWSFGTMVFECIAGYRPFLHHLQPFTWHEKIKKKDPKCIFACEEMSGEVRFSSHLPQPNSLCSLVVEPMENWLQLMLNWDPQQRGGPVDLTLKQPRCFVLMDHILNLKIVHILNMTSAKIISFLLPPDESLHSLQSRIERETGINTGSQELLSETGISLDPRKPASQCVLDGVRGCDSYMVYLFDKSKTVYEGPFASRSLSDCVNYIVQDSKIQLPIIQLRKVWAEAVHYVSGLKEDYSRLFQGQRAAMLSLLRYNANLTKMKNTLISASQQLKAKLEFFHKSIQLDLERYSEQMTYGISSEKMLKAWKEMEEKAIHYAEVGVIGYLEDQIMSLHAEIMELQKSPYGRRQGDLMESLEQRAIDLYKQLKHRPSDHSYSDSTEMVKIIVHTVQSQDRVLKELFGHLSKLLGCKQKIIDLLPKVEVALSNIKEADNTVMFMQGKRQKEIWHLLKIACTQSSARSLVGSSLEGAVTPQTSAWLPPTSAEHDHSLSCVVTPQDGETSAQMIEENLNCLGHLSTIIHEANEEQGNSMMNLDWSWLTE

Sequence of Transient receptor potential cation channel subfamily M member 6 (Homo sapiens) (Q9BX84 whole entry): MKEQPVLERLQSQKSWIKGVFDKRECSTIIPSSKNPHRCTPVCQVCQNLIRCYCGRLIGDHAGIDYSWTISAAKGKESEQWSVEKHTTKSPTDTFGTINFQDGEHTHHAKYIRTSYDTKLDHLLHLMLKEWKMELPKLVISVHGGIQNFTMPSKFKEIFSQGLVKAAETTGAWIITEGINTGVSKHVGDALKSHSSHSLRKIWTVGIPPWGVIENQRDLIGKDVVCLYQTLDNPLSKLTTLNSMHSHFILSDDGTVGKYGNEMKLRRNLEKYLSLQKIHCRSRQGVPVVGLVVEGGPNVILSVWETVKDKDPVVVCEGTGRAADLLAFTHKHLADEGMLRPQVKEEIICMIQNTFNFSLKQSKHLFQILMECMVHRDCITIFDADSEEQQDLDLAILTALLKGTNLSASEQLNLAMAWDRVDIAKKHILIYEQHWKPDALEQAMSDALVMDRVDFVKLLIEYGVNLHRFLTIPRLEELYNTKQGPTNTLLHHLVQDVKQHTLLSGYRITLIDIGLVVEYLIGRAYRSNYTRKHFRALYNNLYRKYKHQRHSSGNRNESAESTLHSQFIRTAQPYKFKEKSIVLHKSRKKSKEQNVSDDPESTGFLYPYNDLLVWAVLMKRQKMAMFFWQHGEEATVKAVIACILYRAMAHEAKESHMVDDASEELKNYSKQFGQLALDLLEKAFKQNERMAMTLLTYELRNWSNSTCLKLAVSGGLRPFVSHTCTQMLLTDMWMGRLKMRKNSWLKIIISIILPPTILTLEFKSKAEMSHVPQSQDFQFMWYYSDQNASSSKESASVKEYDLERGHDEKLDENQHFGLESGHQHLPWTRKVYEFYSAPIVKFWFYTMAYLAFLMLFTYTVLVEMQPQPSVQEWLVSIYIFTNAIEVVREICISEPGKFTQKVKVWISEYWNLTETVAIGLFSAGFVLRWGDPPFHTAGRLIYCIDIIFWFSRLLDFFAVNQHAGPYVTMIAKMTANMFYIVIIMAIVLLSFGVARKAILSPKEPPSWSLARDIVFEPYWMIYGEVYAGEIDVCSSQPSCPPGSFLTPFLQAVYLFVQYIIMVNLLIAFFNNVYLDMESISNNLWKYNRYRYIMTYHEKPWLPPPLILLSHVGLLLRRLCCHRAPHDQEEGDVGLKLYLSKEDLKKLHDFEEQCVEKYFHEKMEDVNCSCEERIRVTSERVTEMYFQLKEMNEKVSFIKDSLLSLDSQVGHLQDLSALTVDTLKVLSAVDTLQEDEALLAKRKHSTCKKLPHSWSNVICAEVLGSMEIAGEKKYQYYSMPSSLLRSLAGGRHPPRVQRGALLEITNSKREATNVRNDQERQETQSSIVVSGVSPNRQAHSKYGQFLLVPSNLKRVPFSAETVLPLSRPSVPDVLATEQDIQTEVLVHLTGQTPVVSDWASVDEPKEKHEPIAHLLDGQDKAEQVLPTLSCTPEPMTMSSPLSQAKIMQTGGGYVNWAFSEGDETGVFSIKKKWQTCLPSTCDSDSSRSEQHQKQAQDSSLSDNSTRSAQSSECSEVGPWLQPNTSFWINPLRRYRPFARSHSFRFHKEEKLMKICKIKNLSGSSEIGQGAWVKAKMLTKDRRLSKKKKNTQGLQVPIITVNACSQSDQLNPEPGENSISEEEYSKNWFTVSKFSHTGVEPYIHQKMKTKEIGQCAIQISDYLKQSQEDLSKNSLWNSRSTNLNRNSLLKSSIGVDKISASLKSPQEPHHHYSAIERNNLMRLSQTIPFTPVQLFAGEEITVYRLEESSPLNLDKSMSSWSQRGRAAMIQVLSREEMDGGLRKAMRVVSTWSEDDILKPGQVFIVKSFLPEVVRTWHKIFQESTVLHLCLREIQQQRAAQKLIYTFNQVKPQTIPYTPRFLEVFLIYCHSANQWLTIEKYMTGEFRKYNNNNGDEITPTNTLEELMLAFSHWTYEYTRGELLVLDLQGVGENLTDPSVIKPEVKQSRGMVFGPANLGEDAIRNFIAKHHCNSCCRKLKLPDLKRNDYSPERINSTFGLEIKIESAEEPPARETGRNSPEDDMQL
Sequence of Hepatocyte growth factor receptor (Homo sapiens), P08581 [Y1235D] (P08581 whole entry Y1235D): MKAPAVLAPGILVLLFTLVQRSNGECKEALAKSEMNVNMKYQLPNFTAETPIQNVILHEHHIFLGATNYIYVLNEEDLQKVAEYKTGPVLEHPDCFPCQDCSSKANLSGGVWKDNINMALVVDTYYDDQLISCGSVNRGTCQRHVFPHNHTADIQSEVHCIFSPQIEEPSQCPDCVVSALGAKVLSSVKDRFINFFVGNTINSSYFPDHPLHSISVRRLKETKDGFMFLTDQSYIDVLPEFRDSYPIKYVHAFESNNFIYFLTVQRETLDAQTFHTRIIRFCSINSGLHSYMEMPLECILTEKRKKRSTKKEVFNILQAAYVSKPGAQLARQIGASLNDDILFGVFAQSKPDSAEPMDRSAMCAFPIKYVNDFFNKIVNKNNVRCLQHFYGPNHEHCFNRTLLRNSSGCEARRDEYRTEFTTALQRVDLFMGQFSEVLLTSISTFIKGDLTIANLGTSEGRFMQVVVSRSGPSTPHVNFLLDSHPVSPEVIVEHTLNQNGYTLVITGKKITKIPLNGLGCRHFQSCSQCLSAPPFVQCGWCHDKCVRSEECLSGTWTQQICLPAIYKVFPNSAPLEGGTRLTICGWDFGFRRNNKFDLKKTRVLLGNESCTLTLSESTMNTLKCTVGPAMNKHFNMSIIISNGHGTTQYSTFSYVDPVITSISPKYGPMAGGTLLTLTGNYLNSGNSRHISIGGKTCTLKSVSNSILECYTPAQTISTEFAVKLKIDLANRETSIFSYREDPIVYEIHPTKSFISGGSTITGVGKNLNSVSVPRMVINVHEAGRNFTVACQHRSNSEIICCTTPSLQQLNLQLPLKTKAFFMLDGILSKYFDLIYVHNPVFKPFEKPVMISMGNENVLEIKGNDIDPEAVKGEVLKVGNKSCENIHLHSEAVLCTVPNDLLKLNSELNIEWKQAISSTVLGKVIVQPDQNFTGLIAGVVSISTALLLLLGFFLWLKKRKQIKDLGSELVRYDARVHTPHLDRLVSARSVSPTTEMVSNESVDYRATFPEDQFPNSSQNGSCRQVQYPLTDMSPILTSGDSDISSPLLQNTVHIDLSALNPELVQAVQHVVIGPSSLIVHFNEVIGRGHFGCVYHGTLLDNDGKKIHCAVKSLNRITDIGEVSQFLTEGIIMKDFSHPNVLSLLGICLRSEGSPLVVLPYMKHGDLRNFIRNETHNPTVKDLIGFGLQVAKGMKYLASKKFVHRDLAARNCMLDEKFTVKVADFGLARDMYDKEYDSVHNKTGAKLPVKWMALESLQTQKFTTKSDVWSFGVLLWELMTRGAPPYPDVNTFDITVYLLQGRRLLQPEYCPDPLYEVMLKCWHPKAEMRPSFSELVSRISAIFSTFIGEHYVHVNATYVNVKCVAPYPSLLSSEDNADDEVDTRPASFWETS
Sequence of Death-associated protein kinase 3 (Homo sapiens) (O43293 whole entry, looked up): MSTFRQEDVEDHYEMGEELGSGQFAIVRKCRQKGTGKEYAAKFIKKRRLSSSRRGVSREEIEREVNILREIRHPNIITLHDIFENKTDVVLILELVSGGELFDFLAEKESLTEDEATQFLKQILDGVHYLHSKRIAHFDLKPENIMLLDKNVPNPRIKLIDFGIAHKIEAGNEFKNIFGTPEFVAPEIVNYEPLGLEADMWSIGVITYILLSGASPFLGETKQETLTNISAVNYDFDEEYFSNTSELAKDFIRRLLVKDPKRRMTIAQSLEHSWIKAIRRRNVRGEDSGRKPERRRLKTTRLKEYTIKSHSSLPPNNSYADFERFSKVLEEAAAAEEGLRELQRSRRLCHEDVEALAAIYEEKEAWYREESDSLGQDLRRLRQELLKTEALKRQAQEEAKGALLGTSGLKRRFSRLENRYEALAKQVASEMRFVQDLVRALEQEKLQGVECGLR
Sequence of Mitogen-activated protein kinase 8 (P45983 whole entry): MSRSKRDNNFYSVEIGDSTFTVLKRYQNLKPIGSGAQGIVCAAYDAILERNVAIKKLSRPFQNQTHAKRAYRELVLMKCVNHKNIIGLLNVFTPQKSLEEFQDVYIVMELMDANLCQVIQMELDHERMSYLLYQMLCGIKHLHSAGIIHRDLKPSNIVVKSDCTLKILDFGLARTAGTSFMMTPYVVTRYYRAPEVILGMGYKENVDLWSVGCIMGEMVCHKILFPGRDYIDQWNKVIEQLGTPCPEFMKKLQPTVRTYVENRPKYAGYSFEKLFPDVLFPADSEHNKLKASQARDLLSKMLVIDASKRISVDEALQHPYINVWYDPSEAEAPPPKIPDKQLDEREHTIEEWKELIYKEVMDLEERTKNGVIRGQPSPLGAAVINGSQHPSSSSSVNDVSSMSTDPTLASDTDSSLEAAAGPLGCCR
Sequence of MAP kinase-activated protein kinase 2 (P49137 whole entry, looked up): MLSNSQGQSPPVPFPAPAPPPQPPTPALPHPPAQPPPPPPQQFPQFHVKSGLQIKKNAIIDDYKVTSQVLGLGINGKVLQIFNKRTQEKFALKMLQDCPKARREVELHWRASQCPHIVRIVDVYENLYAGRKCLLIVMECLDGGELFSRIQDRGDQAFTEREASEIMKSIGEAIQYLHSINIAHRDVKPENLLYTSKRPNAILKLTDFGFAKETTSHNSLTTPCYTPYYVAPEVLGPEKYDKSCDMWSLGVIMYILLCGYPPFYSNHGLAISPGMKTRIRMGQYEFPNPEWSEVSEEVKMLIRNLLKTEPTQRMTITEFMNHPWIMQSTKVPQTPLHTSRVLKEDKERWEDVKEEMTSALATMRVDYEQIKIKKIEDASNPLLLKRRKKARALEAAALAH

**Q.** Which % of control [1] does the source give for `CCN(CC)CCCCNc1ncc2cc(-c3cc(OC)cc(OC)c3)c(NC(=O)NC(C)(C)C)nc2n1` here?
**A.** The % of control was 100%.

**Q.** Which % of control [2] does the source give for `CN(C)C/C=C/C(=O)Nc1ccc(C(=O)N2CCCC(Nc3ncc(Cl)c(-c4c[nH]c5ccccc45)n3)C2)cc1` (configuration not stated) here?
**A.** The % of control was 86%.

**Q.** Which % of control [3] does the source give for `CC(=O)Nc1cccc(-n2c(=O)n(C3CC3)c(=O)c3c(Nc4ccc(I)cc4F)n(C)c(=O)c(C)c32)c1` here?
**A.** The % of control was 104%.

**Q.** What does the source list for `CNC(=O)Nc1ccc(-c2nc(N3CC4CCC(C3)O4)c3cnn(C4CCC5(CC4)OCCO5)c3n2)cc1`?
**A.** % of control [4]: 82%; % of control [5]: 93%; % of control [6]: 24%; % of control [7]: 87%

**Q.** With `C=CC(=O)Nc1cc(-n2c(=O)ccc3cnc4ccc(-c5ccc(NS(C)(=O)=O)cc5)cc4c32)ccc1C` as the molecule, how does the % of control ([8]; at 1 µM) read?
**A.** Its % of control is 100%.

**Q.** What about the % of control ([8]; at 10 µM) of the same molecule?
**A.** Its % of control is 100%.

**Q.** With `C=CC(=O)Nc1ccc(C(=O)Nc2[nH]nc3c2CN(C(=O)N[C@H](CN(C)C)c2ccccc2)C3(C)C)cc1` as the molecule, how does the % of engagement ([9]; Selectivity number of off-targets 0.0, Selectivity number of targets 233.0, Source Knowledge https://www.sciencedirect.com/science/article/pii/S2451945619300674?via%3Dihub) read?
**A.** Its % of engagement is 28.4%.

**Q.** And the % of engagement [9]?
**A.** Its % of engagement is 32.7%.

**Q.** With `CC[C@@H]1[C@H](F)C(=O)N[C@@H]1COc1nccc2cc(C(N)=O)c(OC)cc12` [ZIMLOVISERTIB] as the molecule, how does the “% of inhibition” value ([10]; Selectivity number of off-targets 0, at 0.01 µM) read?
**A.** Its value is 4.1%.

**Q.** And the “% of inhibition” value ([10]; Selectivity number of off-targets 0, at 0.04 µM)?
**A.** Its value is 23.1%.

**Q.** What about the “% of inhibition” value ([10]; Selectivity number of off-targets 0, at 0.2 µM) of the same molecule?
**A.** The value was 11.5%.

**Q.** What about the “% of inhibition” value ([10]; Selectivity number of off-targets 1, at 1 µM) of the same molecule?
**A.** The value was 7.9%.

**Q.** And the “% of inhibition” value ([10]; Selectivity number of off-targets 5, at 5 µM)?
**A.** The value was 11.7%.

**Q.** With `Cc1cnc(Nc2ccc(F)cc2Cl)nc1-c1c[nH]c(C(=O)N[C@H](CO)c2cccc(Cl)c2)c1` as the molecule, how does the % of inhibition [11] read?
**A.** The % of inhibition was 0%.
